Values of other authors, collected in US11096912B2, “Valaciclovir and celecoxib combination for functional somatic syndromes” (INNOVATIVE MED CONCEPTS, LLC, priority 2012, dated 2021).

Tested on: fibromyalgia patients
Conditions: valacyclovir alone; J. Rheumatology (2004) 31, 783-784

CC(C)[C@H](N)C(=O)OCCOCn1cnc2c(=O)[nH]c(N)nc21 [valacyclovir]
treatment of fibromyalgia patients: not successful
